According to US8946287B2, “Chemotherapeutic flavonoids, and syntheses thereof” (Purdue Research Foundation, priority 2006, dated 2015):
Like-named read-outs stand apart in the source and are kept apart here.

Assays:
HL-60 cells = assay: Induction of differentiation in HL-60 cell line (NBT reduction, 4-day protocol); format: cell-based
Description: Cell Culture. […] The cell lines were maintained in a 5% CO2 atmosphere at 37° C. and were routinely tested for mycoplasma contamination.
HL-60 cells were tested using a 4-day protocol. […] In brief, cells in log phase (approximately 10^6 cells/mL) were diluted to 10^5 cells/mL and preincubated overnight (18 h) in 24-well plates to allow cell growth recovery. Then, samples dissolved in DMSO were added, keeping the final DMSO concentration at 0.1% (v/v). Control cultures were treated with the same concentration of DMSO.
Evaluation of NBT reduction was used to assess the ability of sample-treated cells to produce superoxide when challenged with TPA. A 1:1 (v/v) mixture of a cell suspension (10^6 cells) and TPA/NBT solution [2 mg/mL NBT and 1 μg/mL TPA in phosphate buffer saline (PBS)] was incubated for 1 h at 37° C. Then, cells were smeared on glass slides, and counterstained with 0.3% (w/v) safranin O in methanol. Positive cells reduce NBT yielding intracellular black-blue formazan deposits and were quantified by microscopic examination of >200 cells. Results were expressed as a percentage of positive cells.

[1] = target: T1, aromatase (CYP19, BD Biosciences) (Homo sapiens, UniProt P11511); assay: Assay for inhibition of aromatase activity (fluorescence, dibenzylfluorescein)
T1 sequence (P11511 1-503): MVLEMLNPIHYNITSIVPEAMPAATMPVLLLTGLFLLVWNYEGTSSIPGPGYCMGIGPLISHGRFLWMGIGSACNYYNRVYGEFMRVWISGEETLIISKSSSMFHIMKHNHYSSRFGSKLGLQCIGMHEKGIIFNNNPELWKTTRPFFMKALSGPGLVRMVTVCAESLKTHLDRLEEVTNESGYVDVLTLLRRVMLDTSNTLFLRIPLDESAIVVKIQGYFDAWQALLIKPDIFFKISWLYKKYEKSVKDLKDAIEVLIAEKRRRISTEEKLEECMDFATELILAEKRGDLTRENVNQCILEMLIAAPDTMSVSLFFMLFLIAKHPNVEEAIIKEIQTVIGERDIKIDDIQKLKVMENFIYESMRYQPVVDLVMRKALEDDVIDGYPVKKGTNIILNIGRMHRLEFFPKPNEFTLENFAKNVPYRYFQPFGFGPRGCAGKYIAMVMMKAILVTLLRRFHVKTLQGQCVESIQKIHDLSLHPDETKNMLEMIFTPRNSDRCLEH
Description: Aromatase inhibition is quantified by measuring the fluorescent intensity of fluorescein, the hydrolysis product of dibenzylfluorescein by aromatase. In brief, the test substance (10 μL) is pre-incubated with the NADPH regenerating system (90 μL of 2.6 mM NADP^+, 7.6 mM glucose 6-phosphate, 0.8 U/mL glucose-6-phosphate dehydrogenase, 13.9 mM MgCl2, and 1 mg/mL albumin in 10 mL of 50 mM potassium phosphate, pH 7.4) for 10 min at 37° C. before 100 μL of the enzyme and substrate mixture [800 μL enzyme (CYP19, BD Biosciences, San Jose, Calif.), 0.4 μM dibenzylfluorescein and 4 mg/mL albumin in 10 mL of 50 mM potassium phosphate, pH 7.4] are added. Then, the reaction mixture is incubated for 30 min at 37° C. to allow aromatase to generate the product, and quenched with 75 μL 2 N NaOH. After the reaction is terminated, a 5-min shaking followed by a 2-h incubation at 37° C. enhances the noise/background ratio and fluorescence is measured at 485 nm (excitation) and 530 nm (emission). All experiments were performed in duplicate and the average was used for calculation of IC50 values (Table 2). Compounds were tested in comparison to aminogluthethimide used as positive control.

[2] = test system: TPA-induced NF-κB activity in HepG2 cells stably transfected with NF-κB-luciferase plasmid; assay: Inhibition of TPA-induced NF-κB activity in HepG2 cells (NF-κB-luciferase); format: cell-based, human
Description: Cell Culture. […] HepG2 human hepatoma cells stably transfected with NF-κB-luciferase plasmid were maintained in Ham's F12 supplemented with 10% heat-inactivated fetal bovine serum, 100 units/mL penicillin G sodium, 100 μg/mL streptomycin sulfate, 1% MEM amino acid and 0.1% insulin. […] The cell lines were maintained in a 5% CO2 atmosphere at 37° C. and were routinely tested for mycoplasma contamination.
Inhibition of TPA-Induced NF-κB Activity in HepG2 Cells. […] In brief, transfected cells were incubated for 48 h in 96-well plates. […] Cells were washed with PBS, lysed using 50 μL 1× Reporter Lysis Buffer (Promega, Madison, Wis.) for 10 min, and the luciferase determination was performed according to the manufacturer's protocol.

[3] = test system: TPA-induced ornithine decarboxylase (ODC) activity in T24 cells; assay: Inhibition of TPA-induced ornithine decarboxylase (ODC) activity in T24 cells; format: cell-based; conditions: Homo sapiens, read-out: IC50, inhibition of TPA-induced ODC activity
Description: Cell Culture. […] T24 cells were cultured in MEM medium (Invitrogen, Carlsbad, Calif.) containing 10% heat-inactivated fetal bovine serum, non-essential amino acids, 1 mM sodium pyruvate (BioWhittaker, Walkersville, Md.), 100 units of penicillin/mL, 100 μg streptomycin/mL and 250 ng amphotericin B/mL (Gibco Invitrogen, Grand Island, N.Y.). […] The cell lines were maintained in a 5% CO2 atmosphere at 37° C. and were routinely tested for mycoplasma contamination.
In brief, cells were plated at an initial density of 2×10^5 cells per well in 24-well plates. […] After an additional 6 h incubation, plates were washed twice with PBS and kept at −85° C. until tested. ODC activity was directly assayed by measuring the release of [^14C]CO2 from L-[1-^14C]-ornithine HCl in the presence of 190 μM nonradioactive ornithine HCl. The amount of radioactivity captured in NaOH-impregnated filter discs was determined by scintillation counting in 24-well plates using a Wallac 1450 Microbeta liquid scintillation counter. Protein was determined according to the Lowry procedure. Interfering dithiothreitol contained in the reaction mixture was destroyed by adding chloramine T (50 μL, 8 mg/mL) to each well (30 min incubation at RT), followed by NaOH (50 μM, 5.7 M) to solubilize the protein. The protein was measured in 96-well plates using an aliquot of the reaction mixture and bovine serum albumin as a standard. The optical density was measured at 660 nm using a BT2000 Microkinetic Reader. The results were calculated as nmol [^14C]CO2/h/mg protein and expressed as a percentage in comparison with a control treated with DMSO and TPA (12-O-tetradecanoylphorbol-13-acetate). Dose-response curves were prepared and the results were expressed as IC50 values in micromolar concentrations.

[4] = read-out: IC50 (μM), aromatase inhibition, fluorescein from dibenzylfluorescein, 30 min at 37° C., average of duplicates
[5] = T-24, T24 cells, TPA 200 nM, 6 h incubation

O=c1c(-c2ccc(O)cc2)coc2cc(O)cc(O)c12 [genistein]
ED50, concentration inducing 50% of the cells to differentiate (HL-60 cells): 30 µM

COc1ccc2c(c1)OC(c1ccc(O)c(CC=C(C)C)c1)CC2=O (racemic) [8f, 2-(4-Hydroxy-3-(3-methylbut-2-enyl)phenyl)-7-methoxychroman-4-one]
IC50 [1]: 4.75 ± 0.61 µM

COc1ccc(/C=C/C(=O)c2ccc(O)cc2O)cc1CC=C(C)C [7d, 1-(2,4-Dihydroxyphenyl)-3-(4-methoxy-3-(3-methylbut-2-enyl)phenyl)prop-2-en-1-one]
melting point: 166 to 168 °C
IC50 [1, 4]: 82.9 ± 44.3 µM

Tumor necrosis factor (TNF)-α
IC50, standard inhibitor in NF-κB luciferase assay [2]: 15 to 25 ng/mL

COc1ccc(C2CC(=O)c3ccccc3O2)cc1CC=C(C)C (racemic) [8h, 2-(4-Methoxy-3-(3-methylbut-2-enyl)phenyl)chroman-4-one]
IC50 [1]: 12.1 ± 3.24 µM

COc1ccc(/C=C/C(=O)c2ccc(OC)cc2O)cc1 [7j, 1-(2-Hydroxy-4-methoxyphenyl)-3-(4-methoxyphenyl)prop-2-en-1-one]
IC50 [1]: > 352 µM

COCOc1ccc(C(=O)/C=C/c2ccc(OCOC)c(CC=C(C)C)c2)c(O)c1 [7a, 1-(2-Hydroxy-4-(methoxymethoxy)phenyl)-3-(4-(methoxymethoxy)-3-(3-methylbut-2-enyl)phenyl)prop-2-en-1-one]
IC50 [1]: > 243 µM

CC(C)=CCc1cc(C2CC(=O)c3ccc(O)cc3O2)ccc1O (racemic) [8b, 7-Hydroxy-2-(4-hydroxy-3-(3-methylbut-2-enyl)phenyl)chroman-4-one]
melting point: 76 to 78 °C

COc1ccc(/C=C/C(=O)c2ccccc2O)cc1CC=C(C)C [7h, 1-(2-Hydroxyphenyl)-3-(4-methoxy-3-(3-methylbut-2-enyl)phenyl)prop-2-en-1-one]
IC50 [1]: > 310 µM

COc1ccc(C(=O)/C=C/c2cccc(CC=C(C)C)c2)c(O)c1 [7i, 1-(2-Hydroxy-4-methoxyphenyl)-3-(3-(3-methylbut-2-enyl)phenyl)prop-2-en-1-one]
IC50 [1]: > 310 µM

COc1ccc(C(=O)/C=C/c2ccc(OC)c(CC=C(C)C)c2)c(O)c1 [7g, 1-(2-Hydroxy-4-methoxyphenyl)-3-(4-methoxy-3-(3-methylbut-2-enyl)phenyl)prop-2-en-1-one]
melting point: 82 to 84 °C
IC50 [1]: > 284 µM

COc1ccc2c(c1)OC(c1ccc(OC)c(CC=C(C)C)c1)CC2=O (racemic) [8g, 7-Methoxy-2-(4-methoxy-3-(3-methylbut-2-enyl)phenyl)chroman-4-one]
IC50 [1]: 3.67 ± 1.61 µM

COCOc1ccc(C2CC(=O)c3ccc(OC)cc3O2)cc1CC=C(C)C (racemic) [8e, 7-Methoxy-2-(4-(methoxymethoxy)-3-(3-methylbut-2-enyl)phenyl)chroman-4-one]
IC50 [1]: 25.1 ± 6.38 µM

O=c1cc(-c2ccc(O)cc2)oc2cc(O)cc(O)c12 [apigenin]
ED50, concentration inducing 50% of the cells to differentiate (HL-60 cells): 10 µM
IC50 [3, 5]: 6 µM

COc1ccc(C2CC(=O)c3ccc(OC)cc3O2)cc1 (racemic) [8j, 7-Methoxy-2-(4-methoxyphenyl)chroman-4-one]
IC50 [1]: 1.86 ± 0.37 µM

COc1ccc(C(=O)CC(O)c2ccc(OC)c(CC=C(C)C)c2)c(O)c1 (stereo not shown) [3-Hydroxy-1-(2-hydroxy-4-methoxyphenyl)-3-(4-methoxy-3-(3-methylbut-2-enyl)phenyl)propan-1-one]
IC50 [1, 4]: 54.7 ± 11.9 µM

CC1=CC(=O)c2ccccc2C1=O [menadione]
IC50 [3, 5]: 8.3 µM

COc1cc2c(cc1OC)[C@@H]1C(=O)c3ccc4c(c3O[C@@H]1CO2)C=CC(C)(C)O4 [deguelin]
IC50 ([3]; T-24, 6 h): 0.1 µM

COCOc1ccc2c(c1)OC(c1ccc(OC)c(CC=C(C)C)c1)CC2=O (racemic) [8c, 2-(4-Methoxy-3-(3-methylbut-2-enyl)phenyl)-7-(methoxymethoxy)chroman-4-one]
IC50 [1]: 7.67 ± 3.27 µM

COCOc1ccc(/C=C/C(=O)c2ccc(OC)cc2O)cc1CC=C(C)C [7e, 1-(2-Hydroxy-4-methoxyphenyl)-3-(4-(methoxymethoxy)-3-(3-methylbut-2-enyl)phenyl)prop-2-en-1-one]
IC50 [1]: > 261 µM

COc1ccc2c(c1)OC(c1cccc(CC=C(C)C)c1)CC2=O (racemic) [8i, 7-Methoxy-2-(3-(3-methylbut-2-enyl)phenyl)chroman-4-one]
IC50 [1]: 4.67 ± 2.15 µM

COc1ccc(C(=O)/C=C/c2ccc(O)c(CC=C(C)C)c2)c(O)c1 [7f, 3-(4-Hydroxy-3-(3-methylbut-2-enyl)phenyl)-1-(2-hydroxy-4-methoxyphenyl)prop-2-en-1-one]
melting point: 80 to 82 °C
IC50 [1]: > 295 µM

COc1ccc2c(c1)OC(c1ccc(OCC=C(C)C)cc1)CC2=O (racemic) [8k, 7-Methoxy-2-(4-(3-methylbut-2-enyloxy)phenyl)chroman-4-one]
melting point: 108 to 110 °C

CC(C)=CCc1cc(/C=C/C(=O)c2ccc(O)cc2O)ccc1O [7b, 1-(2,4-Dihydroxyphenyl)-3-(4-hydroxy-3-(3-methylbut-2-enyl)phenyl)-prop-2-en-1-one]
melting point: 167 °C
IC50 [1]: > 308 µM

COc1ccc(C(=O)C=Cc2ccc(OCC=C(C)C)cc2)c(O)c1 [7k, 1-(2-Hydroxy-4-methoxyphenyl)-3-(4-(3-methylbut-2-enyloxy)phenyl)prop-2-en-1-one]
melting point: 95 to 97 °C
IC50 [1]: > 271 µM

COCOc1ccc2c(c1)OC(c1ccc(OCOC)c(CC=C(C)C)c1)CC2=O (racemic) [8a, 7-(Methoxymethoxy)-2-(4-(methoxymethoxy)-3-(3-methylbut-2-enyl)phenyl)-chroman-4-one]
IC50 [1]: 13.9 ± 6.09 µM

COc1ccc(C2CC(=O)c3ccc(O)cc3O2)cc1CC=C(C)C (racemic) [8d, 7-Hydroxy-2-(4-methoxy-3-(3-methylbut-2-enyl)phenyl)chroman-4-one]
IC50 [1]: 4.08 ± 2.1 µM

COCOc1ccc(C(=O)/C=C/c2ccc(OC)c(CC=C(C)C)c2)c(O)c1 [7c, 1-(2-Hydroxy-4-(methoxymethoxy)phenyl)-3-(4-methoxy-3-(3-methylbut-2-enyl)phenyl)prop-2-en-1-one]
IC50 [1]: > 261 µM
